Like-named read-outs stand apart in the source and are kept apart here.
How the values were obtained:
[1] = test system: contractions douloureuses; experiment: Analgesic activity, acetic acid writhing test (Koster et al.); assay type: in vivo; conditions: souris, Administration P.O, dose that reduces the number of painful contractions by 50 %
Description: B - L'activité analgésique a été déterminée chez 1a souris par la méthode de KOSTER et Col. (Fed. Proc. 1959, 18, 412). On détermine la dose efficace 50, dose qui administrée P.O. diminue de 50 % le nombre des contractions douloureuses déclenchées par l'injection in- trapéritonéale d'une solution diluée d'acide acétique.

Solubility in water = assay type: physicochemical
in vivo = conditions: in vivo
Description: (§1) A - La DL 50 a été déterminée chez la souris et le rat par les voies orale et I.V., selon MILLER et TAINTER (Proc. Soc. Exp. Biol. Medecine, 1944, 57, 261.

rat = experiment: in vivo
Description: as §1

souris = experiment: in vivo; conditions: P.O.
Description: as §1

érythème aux U.V. = experiment: Protection against early inflammation, UV erythema method (Winder et al.); assay type: in vivo; conditions: cobaye albinos, Administration P.O, dose that moderates erythema intensity by 50 %; for ED50: Cavia porcellus, po, read-out: Erythème aux U.V. DE.50
Description: D - L'activité protectrice vis-à-vis de l'inflammation précoce a été mise en évidence sur le cobaye albinos selon la méthode de l'érythème aux U.V. (WINDER et Col., Arch. Int. Pharmacodyn. 1958, 116, 261). La dose efficace 50 est la dose qui.donnée P.O., modère de 50 % l'intensité de l'érythème induit par exposition à un rayonnement U.V. de la surface dorsale épilée des cobayes.

oedème à la carragénine = experiment: Anti-inflammatory activity, carrageenan oedema test (Winter et al.); assay type: in vivo; conditions: Administration P.O, dose that inhibits the oedema by 30 %; for ED30: Rattus norvegicus, po, read-out: Oedème à la carra-génine DE.30
Description: C - L'activité anti-inflammatoire a été démontrée par le test de l'oedème à la carragénine, selon WINTER et Col. (Proc. Exp. Biol. Med., 1962, 111, 544. On recherche .la protection que confère le traitement par le pro- duit administré P.O. au rat, vis à vis d'un oedème déclenché par injection sous la voûte plantaire, d'une suspension de carragénine. La dose efficace 30 est celle qui inhibe l'oedème de 30 %.

CC(C(=O)O)c1ccc(-n2cccc2)c(N)c1 (racemic) [Composé C, sel de (±) lysine de l'acide (±) amino-3 (pyrrolyl-l')-4 α- méthyl phénylacétique]
Acide acétique DE.50 [1]: 42 mg/kg | solubilité dans l'eau (Solubility in water): parfaite solubilité dans l'eau | LD50 (in vivo; mouse, iv, souris, I.V., read-out: DL. 50 souris I.V.): > 1600 mg/kg | DL. 50 rat P.O. (rat): 697 ± 103 mg/kg | DL. 50 souris P.O. (souris): >3200 mg/kg | Erythème aux U.V. DE.50 (érythème aux U.V.): 4,8 mg/kg | Oedème à la carra-génine DE.30 (oedème à la carragénine; rat): 15 mg/kg

CCCCC1C(=O)N(c2ccccc2)N(c2ccccc2)C1=O [Phénylbuta-zone, butyl-4 diphényl-1,2 pyrazolidine dione-3,5]
ED50 ([1]; Mus musculus, po, read-out: Acide acétique DE.50): 93 mg/kg | ED50 (érythème aux U.V.): 3.7 mg/kg | ED30 (oedème à la carragénine): 35 mg/kg

CC(C(=O)O)c1ccc(-n2cccc2)c(N)c1 (racemic) [Composé B, acide (±) amino-3 (pyrrolyl-1') -4α- méthyl phényl acétique]
Acide acétique DE.50 [1]: 19 mg/kg | LD50 (in vivo; mouse, po, souris, P.O., read-out: DL. 50 souris P.O.): 3000 mg/kg | LD50 (in vivo; rat, po, P.O., read-out: DL. 50 rat P.O.): 392 ± 50 mg/kg | ED50 (érythème aux U.V.): 4.7 mg/kg | ED30 (oedème à la carragénine): 12 mg/kg

From patent EP0016703A1, “Lysine salt of (+/-) 3-amino-4-(1-pyrrolyl)-alpha-methylphenyl-acetic acid, process for its preparation and pharmaceutical composition containing it” (LIPHA, LYONNAISE INDUSTRIELLE PHARMACEUTIQUE, priority 1979, dated 1980)
